Measurements as given in US7144452B2, “Ink jet black ink, ink set, ink jet recording method, ink cartridge, recording unit, and ink jet recording apparatus” (Canon Kabushiki Kaisha, priority 2004, dated 2006).

Assay: Relative permittivity of water-soluble organic solvent (LCR meter)
Format: physicochemical
Conditions: not given
Procedure: The relative permittivity of the water-soluble organic solvent of various types was measured with LCR Meter 4284A (manufactured by Hewlett-Packard Japan, Ltd.) under conditions of a room temperature of 20° C. and a measurement frequency of 1 MHz.

| SMILES | Relative permittivity (measurement frequency: 1 MHz) |
| --- | --- |
| OCCCCO [1,4-Butanediol] | 31.3 |
| OCCO [Ethylene glycol] | 38.1 |

Same assay, conditions: room temperature of 20° C., 1 MHz

| SMILES | Relative permittivity (measurement frequency: 1 MHz) |
| --- | --- |
| OCCCCC(O)CO (stereo not drawn) [1,2,6-Hexanetriol] | 28.5 |
| CC(O)CO (stereo not drawn) [1,2-Propanediol] | 32.2 |
| O=C1CCCN1 [2-Pyrrolidone] | 27.5 |
| OCC(O)CO [Glycerol] | 43.0 |
